Measured values from PMC4854315, “Discovery of a novel allosteric inhibitor-binding site in ERK5: comparison with the canonical kinase hinge ATP-binding site” (Acta Crystallographica. Section D, Structural Biology, 2016).

Tests used:
recombinant human ERK5 = target: T1, recombinant human ERK5 (Homo sapiens, UniProt Q13164); assay: TR-FRET (LANCE Ultra) biochemical assay of ERK5 kinase activity; conditions: TR-FRET enzymatic assay, phosphorylated ERK5; read-out: ERK5 IC50
T1 construct: Catalytically active kinase domain of recombinant human ERK5 enzyme was purchased from Carna Biosciences; purchased Carna Biosciences
Protocol: Catalytically active kinase domain of recombinant human ERK5 enzyme was purchased from Carna Biosciences. […] The inhibitory potency of compounds against ERK5 was evaluated using the LANCE Ultra technology from PerkinElmer according to the manufacturer’s instructions. Briefly, 3 µl of different concentrations of ATP and 100 nM ULight-eIF4E-binding protein 1 (Thr37/46) peptide (Perkin-Elmer catalogue No. TRF0128) were incubated in the presence of serially diluted compound or DMSO control at room temperature in 384-well Greiner white polystyrene assay plates. The reaction was initiated by the addition of 3 µl of 10 nM kinase. The assay buffer consisted of 1 mM DTT, 10 mM MgCl2, 1 mM EGTA, 0.01%(v/v) Tween 20 in 50 mM HEPES pH 7.5. After 60 min incubation, the reaction was stopped by the addition of 6 µl stop/detection reagent mixture consisting of 20 mM EDTA and 4 nM Eu-anti-phospho-eIF4E-binding protein 1 (Thr37/46) antibody (PerkinElmer catalogue No. TRF0216) diluted in detection buffer. The plates were incubated for 1 h before the fluorescence was measured at 615 and 665 nm with an excitation wavelength of 320 nm using an EnVision Multilabel Reader from Perkin-Elmer in time-resolved fluorescence resonance energy transfer (TR-FRET) mode. The calculated signal ratio at 665/615 nm is proportional to the kinase activity. The concentration of compound producing 50% inhibition of the kinase activity (IC50) was calculated by using GraphPad Prism to fit the data to a symmetrical sigmoidal curve.

ERK5 = tested on: ERK5; design: method as in Deng et al., 2013; conditions: Data retrieved from the literature; ref Deng et al., 2013; cited from earlier work

T1 sequence (Q13164 55-347 limits assumed): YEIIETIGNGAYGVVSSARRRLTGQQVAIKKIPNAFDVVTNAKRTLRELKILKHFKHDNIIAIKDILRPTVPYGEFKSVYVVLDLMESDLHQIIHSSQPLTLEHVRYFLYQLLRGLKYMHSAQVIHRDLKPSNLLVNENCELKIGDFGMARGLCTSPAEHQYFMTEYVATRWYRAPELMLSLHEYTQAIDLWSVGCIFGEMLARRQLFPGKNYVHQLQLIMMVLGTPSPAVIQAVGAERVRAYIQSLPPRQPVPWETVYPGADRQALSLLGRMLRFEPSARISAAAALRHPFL

| IC50 (recombinant human ERK5) | Structure (SMILES) | IC50 (ERK5) |
| --- | --- | --- |
| > 10 µM | CC(C)NC(=O)n1nc(N)nc1Nc1ccc(Cl)cc1 [Compound 4] | – |
| > 10 µM | CC(NC(=O)n1nc(N)nc1Nc1ccc(Cl)cc1)c1ccccc1 (stereo not drawn) [Compound 6] | – |
| – | COc1cc(C(=O)N2CCC(N3CCN(C)CC3)CC2)ccc1Nc1ncc2c(n1)N(C1CCCC1)c1ccccc1C(=O)N2C [Compound 1] | 0.082 µM |
